Laboratory results published in patent US10364245B2 (CHIESI FARMACEUTICI S.p.A., priority 2017, dated 2019).
Where a name gives a salt, the structure may show the parent alone.

Assays:
[1] = tested on: Peripheral Blood Mononuclear Cells (PBMCs), TNFα release; assay: LPS-stimulated PBMC TNFα release assay; type: cell-based; settings: human PBMC, LPS (10 ng/ml), 18 h, compound 1 h before LPS; read-out: LPS-stimulated PBMC TNFα release inhibition
Description: LPS-Stimulated PBMC TNFα Release Assay
Peripheral Blood Mononuclear Cells (PBMCs) were isolated from healthy human volunteer blood using a standard density gradient centrifugation technique. Citrated blood was placed onto Histopaque™ and centrifuged. The PBMCs were removed from the density gradient interface and washed in phosphate buffered saline (PBS). The PBMCs were suspended in RPMI 1640 medium (without serum), dispensed into a 96-well plate and incubated at 37° C. for 3 h in a humidified incubator. After incubation, the medium was replaced (with medium containing 1% foetal bovine serum) and the plate incubated at 37° C., for 1 h, in the presence of test compound or the appropriate vehicle. LPS (10 ng/ml), or an appropriate vehicle control, was then added to the cells and the plate returned to the incubator for 18 h. Cell-free supernatants were removed and assayed for TNFα levels using MSD plates on the Sector Imager 6000 (MesoScale).
A dose response curve to each test compound was performed and the effect of compound in each experiment was expressed as a percentage inhibition of the control TNFα release. Dose response curves were plotted and compound potency (IC50) was determined. Compounds were tested in at least three separate experiments.

p38 alpha = target: T1, p38 alpha (Homo sapiens, UniProt Q16539); assay: P38 alpha enzyme inhibition assay (Alphascreen kinase activity assay); type: biochemical; settings: 100 pM p38 alpha, 2 hours preincubation at 25° C., 250 μM ATP, ATF-2 fusion protein; read-out: p38α inhibition
T1 construct: purchased Invitrogen PV3304
How it was run: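 100 pM p38 alpha preincubated 2 h at 25 °C with compound and 0.3 μg/ml ATF-2 fusion substrate (HEPES pH 7.5, MgCl2, 1% DMSO). Reaction started with 250 μM ATP, run 1 h at 25 °C, stopped with EDTA; phospho-ATF2 detected by AlphaScreen luminescence. IC50 from concentration-response curves.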

T1 sequence (Q16539 whole entry, the tested form may be a part): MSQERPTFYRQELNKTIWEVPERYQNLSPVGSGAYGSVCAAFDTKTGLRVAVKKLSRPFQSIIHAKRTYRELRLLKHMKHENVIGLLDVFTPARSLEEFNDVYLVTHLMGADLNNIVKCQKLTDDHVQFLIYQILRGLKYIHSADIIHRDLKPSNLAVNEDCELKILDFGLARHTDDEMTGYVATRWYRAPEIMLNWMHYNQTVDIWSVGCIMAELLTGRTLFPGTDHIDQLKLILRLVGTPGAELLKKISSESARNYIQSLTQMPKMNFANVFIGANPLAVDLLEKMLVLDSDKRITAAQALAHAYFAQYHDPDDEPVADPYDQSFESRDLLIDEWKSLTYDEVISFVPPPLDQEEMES

| Compound | IC50 (p38 alpha) | IC50 [1] |
| --- | --- | --- |
| CN1CCC[C@]1(C)c1nnc2ccc(O[C@@H]3CC[C@H](NC(=O)Nc4cc(C(C)(C)C)cc(C#N)n4)c4ccccc43)cn12 [Example 39, 1-(4-(tert-Butyl)-6-cyanopyridin-2-yl)-3-((1S,4R)-4-((3-((R)-1,2-dimethylpyrrolidin-2-yl)-[1,2,4]triazolo[4,3-a]pyridin-6-yl)oxy)-1,2,3,4-tetrahydronaphthalen-1-yl)urea] | 1 to 10 nM | < 1 nM |
| COc1ncc(C(C)(C)C)cc1NC(=O)N[C@H]1CC[C@@H](Oc2ccc3nnc([C@]4(C)CCCN4C)n3c2)c2ccccc21 [Example 52, 1-(5-(tert-Butyl)-2-methoxypyridin-3-yl)-3-((1S,4R)-4-((3-((S)-1,2-dimethylpyrrolidin-2-yl)-[1,2,4]triazolo[4,3-a]pyridin-6-yl)oxy)-1,2,3,4-tetrahydronaphthalen-1-yl)urea] | 1 to 10 nM | < 1 nM |
| COCC(C)(C)c1nnc2ccc(O[C@@H]3CC[C@H](NC(=O)Nc4cc(C(C)(C)C)nc(C(=O)NCCN(C)C)n4)c4ccccc43)cn12 [Example 54, 4-(tert-Butyl)-N-(2-(dimethylamino)ethyl)-6-(3-((1S,4R)-4-((3-(methoxy-2-methylpropan-2-yl)-[1,2,4]triazolo[4,3-a]pyridin-6-yl)oxy)-1,2,3,4-tetrahydronaphthalen-1-yl)ureido)pyrimidine-2-carboxamide] | < 1 nM | 1 to 5 nM |
| CN(C)CCNC(=O)c1nc(NC(=O)N[C@H]2CC[C@@H](Oc3ccc4nnc(C5(C)COC5)n4c3)c3ccccc32)cc(C(C)(C)C)n1 [Example 55, 4-(tert-Butyl)-N-(2-(dimethylamino)ethyl)-6-(3-((1S,4R)-4-((3-(3-methyloxetan-3-yl)-[1,2,4]triazolo[4,3-a]pyridin-6-yl)oxy)-1,2,3,4-tetrahydronaphthalen-1-yl)ureido)pyrimidine-2-carboxamide] | 1 to 10 nM | > 5 nM |
| CO[C@@H](C)c1nnc2ccc(O[C@@H]3CC[C@H](NC(=O)Nc4cc(C(C)(C)C)nc(C(=O)NCCN(C)C)n4)c4ccccc43)cn12 [Example 56, 4-(tert-Butyl)-N-(2-(dimethylamino)ethyl)-6-(3-((1S,4R)-4-((3-((S)-1-methoxyethyl)-[1,2,4]triazolo[4,3-a]pyridin-6-yl)oxy)-1,2,3,4-tetrahydronaphthalene-1-yl)ureido)pyrimidin-2-carboxamide] | 1 to 10 nM | > 5 nM |
| COC(C)(C)c1nnc2ccc(O[C@@H]3CC[C@H](NC(=O)Nc4cc(COCCN5CCOCC5)nc(C(C)(C)C)c4)c4ccccc43)cn12 [Example 57] | 1 to 10 nM | > 5 nM |
| CN(C)CCNC(=O)c1cc(C(C)(C)C)cc(NC(=O)N[C@H]2CC[C@@H](Oc3ccc4nnc(C(C)(C)C)n4c3)c3ccccc32)n1 [Example 58, 4-(tert-Butyl)-6-(3-((1S,4R)-4-((3-(tert-butyl)-[1,2,4]triazolo[4,3-a]pyridin-6-yl)oxy)-1,2,3,4-tetrahydronaphthalen-1-yl)ureido)-N-(2-(dimethylamino)ethyl)picolinamide] | < 1 nM | 1 to 5 nM |
| CN(C)CCNC(=O)c1nc(NC(=O)N[C@H]2CC[C@@H](Oc3ccc4nnc(CC(C)(C)C)n4c3)c3ccccc32)cc(C(C)(C)C)n1 [Example 59, 4-(tert-Butyl)-N-(2-(dimethylamino)ethyl)-6-(3-((1S,4R)-4-((3-neopentyl-[1,2,4]triazolo[4,3-a]pyridin-6-yl)oxy)-1,2,3,4-tetrahydronaphthalen-1-yl)ureido)pyrimidine-2-carboxamide] | 1 to 10 nM | > 5 nM |
| CC(C)Cc1nnc2ccc(O[C@@H]3CC[C@H](NC(=O)Nc4cc(C(C)(C)C)nc(C(=O)NCCO)n4)c4ccccc43)cn12 [Example 60, 4-(tert-Butyl)-N-(2-hydroxyethyl)-6-(3-((1S,4R)-4-((3-isobutyl-[1,2,4]triazolo[4,3-a]pyridin-6-yl)oxy)-1,2,3,4-tetrahydronaphthalen-1-yl)ureido)pyrimidine-2-carboxamide] | < 1 nM | 1 to 5 nM |

The next lines start with results.

| IC50 (p38 alpha) | Compound | IC50 [1] |
| --- | --- | --- |
| < 1 nM | CNC(=O)c1nc(NC(=O)N[C@H]2CC[C@@H](Oc3ccc4nnc([C@]5(C)CCCN5C)n4c3)c3ccccc32)cc(C(C)(C)C)n1 [Example 38, 4-(tert-Butyl)-6-(3-((1S,4R)-4-((3-((S)-1,2-dimethylpyrrolidin-2-yl)-[1,2,4]triazolo[4,3-a]pyridin-6-yl)oxy)-1,2,3,4-tetrahydronaphthalen-1-yl)ureido)-N-methylpyrimidine-2-carboxamide] | < 1 nM |
| < 1 nM | Cc1nc(NC(=O)N[C@H]2CC[C@@H](Oc3ccc4nnc([C@]5(C)CCCN5C)n4c3)c3ccccc32)cc(C(C)(C)C)n1 [Example 40, 1-(6-(tert-Butyl)-2-methylpyrimidin-4-yl)-3-((1S,4R)-4-((3-((S)-1,2-dimethylpyrrolidin-2-yl)-[1,2,4]triazolo[4,3-a]pyridin-6-yl)oxy)-1,2,3,4-tetrahydronaphthalen-1-yl)urea] | 1 to 5 nM |
| 1 to 10 nM | COCc1nc(NC(=O)N[C@H]2CC[C@@H](Oc3ccc4nnc([C@]5(C)CCCN5C)n4c3)c3ccccc32)cc(C(C)(C)C)n1 [Example 43, 1-(6-(tert-Butyl)-2-(methoxymethyl)pyrimidin-4-yl)-3-((1S,4R)-4-((3-((S)-1,2-dimethylpyrrolidin-2-yl)-[1,2,4]triazolo[4,3-a]pyridin-6-yl)oxy)-1,2,3,4-tetrahydronaphthalen-1-yl)urea] | 1 to 5 nM |
| < 1 nM | CN1CCC[C@@]1(C)c1nnc2ccc(O[C@@H]3CC[C@H](NC(=O)Nc4cc(C(C)(C)C)ccn4)c4ccccc43)cn12 [Example 44, 1-(4-(tert-Butyl)pyridin-2-yl)-3-((1S,4R)-4-((3-((S)-1,2-dimethylpyrrolidin-2-yl)-[1,2,4]triazolo[4,3-a]pyridin-6-yl)oxy)-1,2,3,4-tetrahydronaphthalen-1-yl)urea] | 1 to 5 nM |
| < 1 nM | C[C@H]1CCCCN1c1nnc2ccc(O[C@@H]3CC[C@H](NC(=O)Nc4cc(C(C)(C)C)ncn4)c4ccccc43)cn12 [Example 45, 1-(6-(tert-Butyl)pyrimidin-4-yl)-3-((1S,4R)-4-((3-((S)-2-methylpiperidin-1-yl)-[1,2,4]triazolo[4,3-a]pyridin-6-yl)oxy)-1,2,3,4-tetrahydronaphthalen-1-yl)urea] | 1 to 5 nM |
| < 1 nM | CN1CCC[C@H]1c1nnc2ccc(O[C@@H]3CC[C@H](NC(=O)Nc4cc(C(C)(C)C)ncn4)c4ccccc43)cn12 [Example 46, 1-(6-(tert-Butyl)pyrimidin-4-yl)-3-((1S,4R)-4-((3-((S)-1-methylpyrrolidin-2-yl)-[1,2,4]triazolo[4,3-a]pyridine-6-yl)oxy)-1,2,3,4-tetrahydronaphthalene-1-yl)urea Hydrochloride] | 1 to 5 nM |
| < 1 nM | CC(C)N1CCC[C@H]1c1nnc2ccc(O[C@@H]3CC[C@H](NC(=O)Nc4cc(C(C)(C)C)ncn4)c4ccccc43)cn12 [Example 47, 1-(6-(tert-Butyl)pyrimidin-4-yl)-3-((1S,4R)-4-((3-((S)-1-isopropylpyrrolidin-2-yl)-[1,2,4]triazolo[4,3-a]pyridine-6-yl)oxy)-1,2,3,4-tetrahydronaphthalene-1-yl)urea Hydrochloride] | > 5 nM |
| 1 to 10 nM | CSc1nc(NC(=O)N[C@H]2CC[C@@H](Oc3ccc4nnc([C@]5(C)CCCN5C)n4c3)c3ccccc32)cc(C(C)(C)C)n1 [Example 49, 1-(6-(tert-Butyl)-2-(methylthio)pyrimidin-4-yl)-3-((1S,4R)-4-((3-((S)-1,2-dimethylpyrrolidin-2-yl)-[1,2,4]triazolo[4,3-a]pyridine-6-yl)oxy)-1,2,3,4-tetrahydronaphthalen-1-yl)urea] | > 5 nM |
| < 1 nM | Cc1ncc(C(C)(C)C)cc1NC(=O)N[C@H]1CC[C@@H](Oc2ccc3nnc([C@]4(C)CCCN4C)n3c2)c2ccccc21 [Example 50, 1-(5-(tert-Butyl)-2-methylpyridin-3-yl)-3-((1S,4R)-4-((3-((S)-1,2-dimethylpyrrolidin-2-yl)-[1,2,4]triazolo[4,3-a]pyridin-6-yl)oxy)-1,2,3,4-tetrahydronaphthalen-1-yl)urea] | < 1 nM |
| < 1 nM | CN1CCC[C@@]1(C)c1nnc2ccc(O[C@@H]3CC[C@H](NC(=O)Nc4cc(CO)nc(C(C)(C)C)c4)c4ccccc43)cn12 [Example 51, 1-(2-(tert-Butyl)-6-(hydroxymethyl)pyridin-4-yl)-3-((1S,4R)-4-((3-((S)-1,2-dimethylpyrrolidin-2-yl)-[1,2,4]triazolo[4,3-a]pyridin-6-yl)oxy)-1,2,3,4-tetrahydronaphthalen-1-yl)urea] | < 1 nM |
| 1 to 10 nM | CNC(=O)c1cc(NC(=O)N[C@H]2CC[C@@H](Oc3ccc4nnc([C@]5(C)CCCN5C)n4c3)c3ccccc32)cc(C(C)(C)C)n1 [Example 53, 6-(tert-Butyl)-4-(3-((1S,4R)-4-((3-((S)-1,2-dimethylpyrrolidin-2-yl)-[1,2,4]triazolo[4,3-a]pyridin-6-yl)oxy)-1,2,3,4-tetrahydronaphthalen-1-yl)ureido)-N-methylpicolinamide] | 1 to 5 nM |
